The subject of one data set is MCF7. Put plainly: Antiproliferative activity against human MCF7 cells assessed as reduction in cell viability incubated for 72 hrs by MTT assay. In kind it is functional, cell-based. To be noted: MCF7, 72 h. (Tetrazolium dyes change colour on reduction, which living cells bring about.)
For another data set, the system named is SGC-7901. The data set can be described thus: Antiproliferative activity against human SGC-7901 cells assessed as reduction in cell viability incubated for 72 hrs by MTT assay. The settings on record: SGC-7901, 72 h. In kind it is functional, cell-based.
The subject of the next data set is A549. Put plainly: Antiproliferative activity against human A549 cells assessed as reduction in cell viability incubated for 72 hrs by MTT assay. In kind it is functional, cell-based. The settings on record: A549, 72 h.
Data set [1] is described as follows: Toxicity in BALB/c nude mouse xenografted with human MCF7 cells assessed as effect on spleen at 10 mg/kg, iv administered every 2 days for 2 weeks. Format: organism-based. To be noted: in vivo, 336 h. For orientation: In xenograft studies the graft and the host belong to different species.

The IC50 is the midpoint of a concentration-inhibition curve. As to `COc1cc(-n2cnc3ccc(-c4cccc(N)c4)cc32)cc(OC)c1OC`, the IC50 with MCF7 was determined as 0.18 µM; in the data set with SGC-7901, 0.021 µM; in the data set on A549, 0.64 µM.
With `Nc1ccn([C@@H]2O[C@H](CO)[C@@H](O)C2(F)F)c(=O)n1` [GEMCITABINE], the Activity result in data set [1] is reported as “Toxic”.
With `COc1cc(-n2cnc3ccc(-c4ccccc4)cc32)cc(OC)c1OC`, the IC50 worked out at 2.29 µM in the data set on MCF7, 0.29 µM in the data set with SGC-7901 and 3.06 µM with A549.
The corresponding values for `COc1cc(-n2cnc3ccc(-c4cccc(C)c4)cc32)cc(OC)c1OC` are 0.36 µM, 1.24 µM and 3.82 µM.
For the compound `COc1cc(-n2cnc3ccc(-c4cccc([N+](=O)[O-])c4)cc32)cc(OC)c1OC`, the figures for the IC50 with MCF7, in the data set with SGC-7901 and with A549 were 4.56 µM, 0.38 µM and 5.41 µM, respectively.
The corresponding values for `CCOc1ccc(-c2ccc3ncn(-c4cc(OC)c(OC)c(OC)c4)c3c2)cc1` are 1.71 µM, 2.97 µM and 8.55 µM.
For `COc1ccc(-c2ccc3ncn(-c4cc(OC)c(OC)c(OC)c4)c3c2)cc1`, the figures for the IC50 with MCF7, in the data set on SGC-7901 and in the data set with A549 were 0.21 µM, 0.082 µM and more than 10 µM, respectively.
As to `COc1cc(-n2cnc3ccc(-c4ccc(Cl)cc4Cl)cc32)cc(OC)c1OC`, the IC50 with MCF7 was 5.42 µM; in the data set on SGC-7901, more than 10 µM; with A549, more than 10 µM.
For the compound `COc1cc(-c2ccc3ncn(-c4cc(OC)c(OC)c(OC)c4)c3c2)cc(OC)c1OC`, the IC50 in the data set with MCF7, with SGC-7901 and with A549 was more than 10 µM in each case.
As to `COc1cc(-n2cnc3ccc(-c4cc(F)ccc4F)cc32)cc(OC)c1OC`, the IC50 turned out to be 6.42 µM with MCF7, 6.59 µM with SGC-7901 and 7.94 µM in the data set with A549.
On to `COc1cc(-n2cnc3ccc(-c4ccc(C)cc4)cc32)cc(OC)c1OC`, for which the IC50 in the data set with MCF7 was 0.11 µM; in the data set on SGC-7901, 0.2 µM; with A549 it was 1.94 µM.
Take `COc1ccccc1-c1ccc2ncn(-c3cc(OC)c(OC)c(OC)c3)c2c1`: the results for the IC50 in the data set on MCF7, in the data set on SGC-7901 and in the data set on A549 were 1.75 µM, 5.05 µM and 4.32 µM, respectively.
On the same counts, the results for `COc1cccc(-c2ccc3ncn(-c4cc(OC)c(OC)c(OC)c4)c3c2)c1` are 1.61 µM, 3.31 µM and 3.18 µM.
On the same counts, the results for `COc1cc(-n2cnc3ccc(-c4ccc(O)cc4)cc32)cc(OC)c1OC` are 4.16 µM, more than 10 µM and 5.09 µM.
